Assay results as given in US10870647B2, “Imidazopyridine derivative, method for preparing same, and pharmaceutical composition containing same as active ingredient for preventing or treating cancer” (DAEGU-GYEONGBUK MEDICAL INNOVATION FOUNDATION, priority 2016, dated 2020).

Key:
Assay type in all cases: cell-based
[1] = tested on: MDA-MB-231; experiment: Real time cell proliferation, IncuCyte ZOOM, 72 hours; conditions: Homo sapiens, MDA-MB-231, 72 h
[2] = tested on: M-NFS-60; experiment: Cancer cell proliferation inhibition, CCK-8, 72 hours
Experimental: (§1) MTS assay was performed to evaluate the cancer cell proliferation inhibition (cancer cell apoptosis) effect of the compounds of examples of the present invention. Particularly, the assay was performed using the cancer cell lines GIST-T1, GIST-T1/816, GIST-430, GIST-430/654, GIST-R1, GIST-R3, M-NFS-60, RetParental (Ba/F3), Retwt (Ba/F3), RetV804M (Ba/F3), RET (LC2/ad-CDC6), FYN (MCP-1), FYN (FN), MDA-MB-231, Huh7, K562, T315I(Ba/F3), SK-MEL-28 and A375. Cell culture was performed using a medium suitable for each cell line.
M-NFS-60 cell line was cultured in the complete growth medium prepared by adding 10% FBS, 0.05 mM 2-mercaptoethanol and 62 ng of human M-CSF to RPMI. When the confluence reached 80% in T-75 flask, the cells were collected in a 50 ml tube for seeding, followed by centrifugation at 800 rpm for 5 minutes. The cells were suspended in 10 mL of growth medium. The cell number was counted by using a hematocytometer to determine the necessary cell number and the medium volume for seeding. The cells were seeded in a 96-well plate at the density of 20000 cells/well (200 μL/well), followed by stabilization in a 37° C. CO2 incubator, while the compounds of the present invention were prepared. The compounds of the present invention were serially diluted with DMSO at the ratio of 1/3 with setting the maximum concentration at 1968 nM, which were loaded in a new V-bottom 96-well plate, resulting in the preparation of total 11 concentrations including the DMSO control. The cells that had been placed in the incubator were taken out, to which the compounds of the present invention were added (2 μl/well). The plate treated with the compounds was cultured in a 37° C. CO2 incubator for 72 hours. 72 hours later, the plate treated with the compounds was taken out, to which CCK-8 solution was treated (20 μl/well). After well mixing, the plate was further cultured in a 37° C. CO2 incubator for 2 hours. Then, OD450 was measured by using a microplate reader. To obtain accurate results, the wells displaying bubbles were eliminated from the measurement.

[3] = tested on: A375; experiment: as above; conditions: Homo sapiens, A-375, 72 h
Experimental: as §1
(§2) In the meantime, MDA-MB-231 and A375 cells were seeded in a 96well plate at the density of 2×10^3/100 μl/well, which stood for a day for attachment. The culture fluid was eliminated. After removing the culture medium, the medium was replaced with the culture medium containing the compounds of the present invention at 3-times serially diluted 9 concentrations (0.0015-10 μM) and the DMSO control, followed by incubation in a 37° C. CO2 incubator for 72 hours. On the other hand, K-562 and Ba/F3-T315I cells were seeded in a 96-well plate at the density of 1×10^4/90 μl/well. The plate containing K-562 cells was added with the culture medium containing the compounds of the present invention at 3-times serially diluted 9 concentrations (0.015-100 μM) and the DMSO control (10 μl/well). The plate containing Ba/F3-T315I cells was added with the culture medium containing the compounds of the present invention at 5-times serially diluted 9 concentrations (0.000256-100 μM) and the DMSO control (10 μl/well). The final concentration was made 0-10 μM and then the cells were cultured in a 37° C. CO2 incubator for 72 hours.
(§3) A375, K-562 and Ba/F3-T315I cells were added with CCK-8 solution at the concentration of 10 μl/well, followed by orbital shaking for 30 seconds. Then, the cells were cultured in a 37° C. CO2 incubator for 2 hours. OD450 was measured by using a microplate reader. The OD value of the well treated with the culture medium and CCK-8 solution alone was subtracted from the OD value measured above, followed by calculation of IC50 using GraphPad Prism 6 software.

[4] = tested on: K562; experiment: as above; conditions: Homo sapiens, K562, 72 h
Experimental: as §1, §2, §3

[5] = target: T1, T315I (Ba/F3) (Homo sapiens, UniProt P00519, T315I, cells depend on it); experiment: as above; conditions: read-out: T315I (Ba/F3) IC50
T1 construct: fused on or other part: P11274 (Breakpoint cluster region protein)
Experimental: as §1, §2, §3

[6] = tested on: RET (LC2/ad-CDC6); experiment: Cancer cell proliferation inhibition, MTS assay, 72 hours; conditions: 72 h
Experimental: as §1
(§4) Other cell lines were seeded in a 96-well plate containing the corresponding medium appropriate for each cell line at the density of 3,000 cells/well, followed by culture in a 5% CO2 and 37° C. incubator for 24 hours. The compounds of examples of the present invention were added to each well at the concentration of from the highest volume of 50 μM to every step of serial dilution. The solvent control, dimethylsulfoxide (DMSO), was treated at the same concentration of 0.05% (v/v) as the volume used for the treatment of the compounds above. Each cell line was cultured for 72 hours. To investigate the cell viability, the MTS and PMS (phenazine methosulfate) mixture provided in CellTiter 96® AQuous Non-Radioactive Cell Proliferation Assay Kit (Promega) was added to each cell culture medium, followed by additional culture at 37° C. for 2 hours. Then, OD450 was measured. Based on OD of the solvent control cells not treated with any compounds of the present invention, the cell proliferation inhibition rate was calculated according to the treatment concentration of each compound. At this time, the concentration of each compound that was able to inhibit cancer cell proliferation up to 50% was determined as IC50 (uM). IC50 of each compound was determined with three data sets and calculated by using Prism softwater (version 6.01, GraphPad).

[7] = tested on: Huh7; experiment: as above; conditions: Homo sapiens, Huh-7
Experimental: as §1, §4

Row | SMILES | IC50 [1] [nM] | IC50 [2] [nM] | IC50 [3] [nM] | IC50 [4] [nM] | GI50 [5] [nM] | IC50 [6] [nM] | IC50 [7] [nM]
1 | Cc1ccc(C(=O)Nc2ccc(CN3CCN(C)CC3)c(C(F)(F)F)c2)cc1C#Cc1cnc2c(Nc3cccc(C(C)(C)O)n3)cccn12 [Example 64, 3-((8-(6-(2-hydroxypropan-2-yl)pyridin-2-yl)aminoimidazo[1,2-a]pyridin-3-yl)ethynyl)-4-methyl-N-(4-((4-methylpiperazin-1-yl)methyl)-3-(trifluoromethyl)phenyl)benzamide] | 987 | 127 | 741 | 3 | 75 | > 10 | 
2 | Cc1ccc(C(=O)Nc2ccc(CN3CCN(C)[C@@H](C)C3)c(C(F)(F)F)c2)cc1C#Cc1cnc2c(Nc3cnn(C)c3)cccn12 [Example 47, (S)—N-(4-((3,4-dimethylpiperazin-1-yl)methyl)-3-(trifluoromethyl)phenyl)-4-methyl-3-((8-((1-methyl-1H-pyrazol-4-yl)amino)imidazo[1,2-a]pyridin-3-yl)ethynyl)benzamide] | 168 | 43.8 | 152 | < 1 | 25 | > 10 | 
3 | COCCCn1cc(Nc2cccn3c(C#Cc4cc(C(=O)Nc5ccc(CN6CCC(N(C)C)C6)c(C(F)(F)F)c5)ccc4C)cnc23)cn1 (centres unmarked) [Example 43, N-(4-((3-(dimethylamino)pyrrolidin-1-yl)methyl)-3-(trifluoromethyl)phenyl)-3-((8-((1-(3-methoxypropyl)-1H-pyrazol-4-yl)amino)imidazo[1,2-a]pyridin-3-yl)ethynyl)-4-methylbenzamide] | 190 |  | 341 | 16 | 59.7 | > 10 | 98
4 | COCCCn1cc(Nc2cccn3c(C#Cc4cc(C(=O)Nc5ccc(CN6CCN(C)[C@H](C)C6)c(C(F)(F)F)c5)ccc4C)cnc23)cn1 [Example 42, (R)—N-(4-((3,4-dimethylpiperazin-1-yl)methyl)-3-(trifluoromethyl)phenyl)-3-((8-((1-(3-methoxypropyl)-1H-pyrazol-4-yl)amino)imidazo[1,2-a]pyridin-3-yl)ethynyl)-4-methylbenzamide] | 320 |  | 163 | 8 | 122 | > 10 | 100
5 | COCCn1cc(Nc2cccn3c(C#Cc4cc(C(=O)Nc5ccc(CN6CCN(C)[C@H](C)C6)c(C(F)(F)F)c5)ccc4C)cnc23)cn1 [Example 40, (R)—N-(4-((3,4-dimethylpiperazin-1-yl)methyl)-3-(trifluoromethyl)phenyl)-3-((8-((1-(2-methoxyethyl)-1H-pyrazol-4-yl)amino)imidazo[1,2-a]pyridin-3-yl)ethynyl)-4-methylbenzamide] | 230 |  | 97 | 8 | 33.5 | 10 | 101
6 | Cc1ccc(C(=O)Nc2cccc(C(F)(F)F)c2)cc1C#Cc1cnc2c(Nc3cc4n(n3)CCNC4)cccn12 [Example 67, 4-methyl-3-((8-((4,5,6,7-tetrahydropyrazolo[1,5-a]pyrazin-2-yl)amino)imidazo[1,2-a]pyridin-3-yl)ethynyl)-N-(3-(trifluoromethyl)phenyl)benzamide] | 429 | 19.4 |  | < 1.5 | 40.1 |  | 919
7 | Cc1ccc(C(=O)Nc2ccc3cccnc3c2)cc1C#Cc1cnc2c(Nc3cnn(C)c3)cccn12 [Example 36, 4-methyl-3-((8-((1-methyl-1H-pyrazol-4-yl)amino)imidazo[1,2-a]pyridin-3-yl)ethynyl)-N-(quinolin-7-yl)benzamide] | > 10000 | 7.76 | > 10000 | 6 | > 10000 |  | 145

The next lines start with the values.

Row | IC50 [1] [nM] | IC50 [2] [nM] | IC50 [3] [nM] | IC50 [4] [nM] | GI50 [5] [nM] | IC50 [6] [nM] | IC50 [7] [nM] | SMILES
8 | 1410 | 71 | 1330 | < 1 | 374 | > 10 |  | Cc1ccc(C(=O)Nc2ccc(Cl)c(C(F)(F)F)c2)cc1C#Cc1cnc2c(Nc3cnn(C4CCNCC4)c3)cccn12 [Example 63, N-(4-chloro-3-(trifluoromethyl)phenyl)-4-methyl-3-((8-((1-(piperidin-4-yl)-1H-pyrazol-4-yl)amino)imidazo[1,2-a]pyridin-3-yl)ethynyl)benzamide]
9 | 1160 | 12.3 |  | < 1.5 | 26.1 |  | 848 | COCCn1cc(Nc2cccn3c(C#Cc4cc(C(=O)Nc5cccc(C(F)(F)F)c5)ccc4C)cnc23)cn1 [Example 70]
10 | 1120 | 21.4 |  | < 1.5 | 93.1 |  |  | Cc1ccc(C(=O)Nc2cccc(C(F)(F)F)c2)cc1C#Cc1cnc2c(Nc3cnn(CCN(C)C)c3)cccn12 [Example 74]
11 | 319 | 31.1 | 249 | < 1 | 28.8 | > 10 | 87.8 | Cc1ccc(C(=O)Nc2ccc(CN3CC[C@H](N(C)C)C3)c(C(F)(F)F)c2)cc1C#Cc1cnc2c(Nc3cnn(C)c3)cccn12 [Example 51, (S)—N-(4-((3-(dimethylamino)pyrrolidin-1-yl)methyl)-3-(trifluoromethyl)phenyl)-4-methyl-3-((8-((1-methyl-1H-pyrazol-4-yl)amino)imidazo[1,2-a]pyridin-3-yl)ethynyl)benzamide]
12 | 386 | 62.7 |  | < 1.5 | 170 |  |  | Cc1ccc(C(=O)Nc2ccc(CN3CCN(C)CC3)c(C(F)(F)F)c2)cc1C#Cc1cnc2c(Nc3cc4n(n3)CCNC4)cccn12 [Example 66, 4-methyl-N-(4-((4-methylpiperazin-1-yl)methyl)-3-(trifluoromethyl)phenyl)-3-((8-((4,5,6,7-tetrahydropyrazolo[1,5-a]pyrazin-2-yl)amino)imidazo[1,2-a]pyridin-3-yl)ethynyl)benzamide]
13 | 240 | 38.8 | 183 | 12 | 42.2 | 10 | 165 | COCCn1cc(Nc2cccn3c(C#Cc4cc(C(=O)Nc5ccc(CN6CCN(C)[C@@H](C)C6)c(C(F)(F)F)c5)ccc4C)cnc23)cn1 [Example 44, (S)—N-(4-((3,4-dimethylpiperazin-1-yl)methyl)-3-(trifluoromethyl)phenyl)-3-((8-((1-(2-methoxyethyl)-1H-pyrazol-4-yl)amino)imidazo[1,2-a]pyridin-3-yl)ethynyl)-4-methylbenzamide]
